Measurements as given in patent US20120258980A1, “Antibacterial Agent for Drug-Resistant Bacteria, Method for Screening for Same, and Use of Same” (priority 2009, published 2012).
Converted amounts (≈) assume the structure as drawn. Where a name gives a salt, the structure may show the parent alone.

Tested on: VISA clinical isolates of MRSA (VI-MRSA) and of MSSA (VI-MSSA)
Test: microbe, parasite or virus in culture
Format: cell-based, Staphylococcus aureus
Description: Each of the bacterial strains listed in Table 1-1 was shake-cultured at 37° C. overnight in 4 mL of a medium (Tryptical Soy Broth: TSB, product of Becton Dickinson and Company). FDA209P was used as a control.
After completion of culturing, the resultant culture was suspended in a cation-adjusted Mueller Hinton Broth (CAMHB, product of Becton Dickinson and Company). Then, the obtained bacterial culture was adjusted in absorbance with the CAMHB so that the absorbance at 578 nm of the bacterial culture was adjusted to 0.3 measured by an absorption spectrometer. In addition, the resultant bacterial culture was 500-fold diluted with the CAMHB.
Each of the 500-fold diluted, pre-cultured bacterial cultures was added at 50 μL/well to the CAMHB containing the quinolones and the nybomycins at various concentrations (50 μL/well), followed by statically culturing at 37° C. overnight.
After completion of culturing, the growth of the bacteria was visually determined based on turbidity to measure MIC in each bacterial strain.
Here, the glycopeptides used were VCM and TEIC. The β-lactam used was OXA.

[1] = Staphylococcus aureus, 99/3700-W, VI-MRSA, The United Kingdom
[2] = Staphylococcus aureus, 99/3759-V, VI-MRSA, The United Kingdom
[3] = Staphylococcus aureus, 28160, VI-MRSA, South African Republic
[4] = Staphylococcus aureus, 98141, VI-MRSA, France
[5] = Staphylococcus aureus, A7 (JCSC4842), VI-MRSA, Taiwan
[6] = Staphylococcus aureus, AMC11094, VI-MRSA, Korea
[7] = Staphylococcus aureus, B7 (JCSC4852), VI-MRSA, Taiwan
[8] = Staphylococcus aureus, BR1, VI-MRSA, Brazil
[9] = Staphylococcus aureus, BR2, VI-MRSA, Brazil
[10] = Staphylococcus aureus, BR3, VI-MRSA, Brazil
[11] = Staphylococcus aureus, BR4, VI-MRSA, Brazil
[12] = Staphylococcus aureus, BR5, VI-MRSA, Brazil
[13] = Staphylococcus aureus, HIP06297, VI-MRSA, America
[14] = Staphylococcus aureus, HIP06854, VI-MRSA, America
[15] = Staphylococcus aureus, HIP07920, VI-MRSA, America
[16] = Staphylococcus aureus, HIP07930, VI-MRSA, America
[17] = Staphylococcus aureus, HIP08926, VI-MRSA, America
[18] = Staphylococcus aureus, HIP09143, VI-MRSA, America
[19] = Staphylococcus aureus, HIP09313, VI-MRSA, America
[20] = Staphylococcus aureus, HIP09433, VI-MRSA, America
[21] = Staphylococcus aureus, HIP09662, VI-MRSA, America
[22] = Staphylococcus aureus, HIP09735, VI-MRSA, America
[23] = Staphylococcus aureus, HIP09737, VI-MSSA, America
[24] = Staphylococcus aureus, HIP09740, VI-MRSA, America
[25] = Staphylococcus aureus, HIP10267, VI-MRSA, America
[26] = Staphylococcus aureus, HIP10540, VI-MRSA, America
[27] = Staphylococcus aureus, HIP12864, VI-MRSA, America
[28] = Staphylococcus aureus, HIP13036, VI-MRSA, America
[29] = Staphylococcus aureus, HIP13057, VI-MRSA, America
[30] = Staphylococcus aureus, IL (HIP7737), VI-MRSA, America
[31] = Staphylococcus aureus, JCSC7193, VI-MRSA, Thailand
[32] = Staphylococcus aureus, JCSC7195, VI-MRSA, Thailand
[33] = Staphylococcus aureus, JCSC7203, VI-MRSA, Thailand
[34] = Staphylococcus aureus, LIM2, VI-MRSA, France
[35] = Staphylococcus aureus, LY-1999-01, VI-MSSA, Oman
[36] = Staphylococcus aureus, LY-1999-03, VI-MRSA, Oman
[37] = Staphylococcus aureus, MI (HIP5827), VI-MRSA, America
[38] = Staphylococcus aureus, MRSA / MSSA / NRS 76 / VISA, NRS76, VI-MSSA, America
[39] = Staphylococcus aureus, MRSA / MSSA / NRS 79 / VISA, NRS79, VI-MRSA, America
[40] = Staphylococcus aureus, MRSA / MSSA / NRS 118 / VISA, NRS118, VI-MRSA, America
[41] = Staphylococcus aureus, MRSA / MSSA / NRS 126 / VISA, NRS126, VI-MRSA, America
[42] = Staphylococcus aureus, Mu3, VI-MRSA, Japan
[43] = Staphylococcus aureus, Mu50, VI-MRSA, Japan
[44] = Staphylococcus aureus, NJ (HIP5836), VI-MRSA, America
[45] = Staphylococcus aureus, P1V44, VI-MSSA, Belgium
[46] = Staphylococcus aureus, PC, VI-MRSA, America
[47] = Staphylococcus aureus, SA MER-S6, VI-MSSA, France
[48] = Staphylococcus aureus, SA MER-S12, VI-MSSA, France
[49] = Staphylococcus aureus, SA MER-S20, VI-MSSA, France

Compound: Cc1cc(=O)n(C)c2c3c4c(cc12)c(C)cc(=O)n4CO3 [DNM, deoxynybomycin]
- MIC [1]: 0.25 µg/mL (≈ 0.886 µM)
- MIC [2]: 1 µg/mL (≈ 3.54 µM)
- MIC [3]: 0.125 µg/mL (≈ 0.443 µM)
- MIC [4]: 0.125 µg/mL (≈ 0.443 µM)
- MIC [5]: ≤ 0.063 µg/mL
- MIC [6]: 0.125 µg/mL (≈ 0.443 µM)
- MIC [7]: 0.125 µg/mL (≈ 0.443 µM)
- MIC [8]: 0.25 µg/mL (≈ 0.886 µM)
- MIC [9]: 0.125 µg/mL (≈ 0.443 µM)
- MIC [10]: 0.125 µg/mL (≈ 0.443 µM)
- MIC [11]: 0.25 µg/mL (≈ 0.886 µM)
- MIC [12]: 0.25 µg/mL (≈ 0.886 µM)
- MIC [13]: 0.125 µg/mL (≈ 0.443 µM)
- MIC [14]: 0.5 µg/mL (≈ 1.77 µM)
- MIC [15]: 0.25 µg/mL (≈ 0.886 µM)
- MIC [16]: 0.5 µg/mL (≈ 1.77 µM)
- MIC [17]: 0.5 µg/mL (≈ 1.77 µM)
- MIC [18]: 0.5 µg/mL (≈ 1.77 µM)
- MIC [19]: 0.125 µg/mL (≈ 0.443 µM)
- MIC [20]: 0.5 µg/mL (≈ 1.77 µM)
- MIC [21]: 0.25 µg/mL (≈ 0.886 µM)
- MIC [22]: 0.5 µg/mL (≈ 1.77 µM)
- MIC [23]: 1 µg/mL (≈ 3.54 µM)
- MIC [24]: 0.25 µg/mL (≈ 0.886 µM)
- MIC [25]: 0.25 µg/mL (≈ 0.886 µM)
- MIC [26]: ≤ 0.063 µg/mL
- MIC [27]: 0.125 µg/mL (≈ 0.443 µM)
- MIC [28]: 0.25 µg/mL (≈ 0.886 µM)
- MIC [29]: 0.125 µg/mL (≈ 0.443 µM)
- MIC [30]: 1 µg/mL (≈ 3.54 µM)
- MIC [31]: 0.33 µg/mL (≈ 1.17 µM)
- MIC [32]: 0.16 µg/mL (≈ 0.567 µM)
- MIC [33]: 0.16 µg/mL (≈ 0.567 µM)
- MIC [34]: 0.25 µg/mL (≈ 0.886 µM)
- MIC [35]: ≤ 0.063 µg/mL
- MIC [36]: ≤ 0.063 µg/mL
- MIC [37]: ≤ 0.063 µg/mL
- MIC [38]: ≤ 0.063 µg/mL
- MIC [39]: 1 µg/mL (≈ 3.54 µM)
- MIC [40]: 2 µg/mL (≈ 7.08 µM)
- MIC [41]: 0.5 µg/mL (≈ 1.77 µM)
- MIC [42]: 0.5 µg/mL (≈ 1.77 µM)
- MIC [43]: 0.25 µg/mL (≈ 0.886 µM)
- MIC [44]: 0.25 µg/mL (≈ 0.886 µM)
- MIC [45]: 0.5 µg/mL (≈ 1.77 µM)
- MIC [46]: 0.125 µg/mL (≈ 0.443 µM)
- MIC [47]: > 64 µg/mL
- MIC [48]: > 64 µg/mL
- MIC [49]: > 64 µg/mL

Compound: Cc1cc(=O)n2c3c(c4c(cc13)c(CO)cc(=O)n4C)OC2 [NM, nybomycin]
- MIC [1]: 0.25 µg/mL (≈ 0.838 µM)
- MIC [2]: 0.5 µg/mL (≈ 1.68 µM)
- MIC [3]: 0.5 µg/mL (≈ 1.68 µM)
- MIC [4]: 0.5 µg/mL (≈ 1.68 µM)
- MIC [5]: 0.125 µg/mL (≈ 0.419 µM)
- MIC [6]: 1 µg/mL (≈ 3.35 µM)
- MIC [7]: ≤ 0.063 µg/mL
- MIC [8]: 0.5 µg/mL (≈ 1.68 µM)
- MIC [9]: 0.25 µg/mL (≈ 0.838 µM)
- MIC [10]: 0.25 µg/mL (≈ 0.838 µM)
- MIC [11]: 0.25 µg/mL (≈ 0.838 µM)
- MIC [12]: 0.25 µg/mL (≈ 0.838 µM)
- MIC [13]: 0.5 µg/mL (≈ 1.68 µM)
- MIC [14]: 1 µg/mL (≈ 3.35 µM)
- MIC [15]: 0.25 µg/mL (≈ 0.838 µM)
- MIC [16]: 1 µg/mL (≈ 3.35 µM)
- MIC [17]: 0.25 µg/mL (≈ 0.838 µM)
- MIC [18]: 0.25 µg/mL (≈ 0.838 µM)
- MIC [19]: 0.5 µg/mL (≈ 1.68 µM)
- MIC [20]: 1 µg/mL (≈ 3.35 µM)
- MIC [21]: 1 µg/mL (≈ 3.35 µM)
- MIC [22]: 0.25 µg/mL (≈ 0.838 µM)
- MIC [23]: 1 µg/mL (≈ 3.35 µM)
- MIC [24]: 0.25 µg/mL (≈ 0.838 µM)
- MIC [25]: 2 µg/mL (≈ 6.7 µM)
- MIC [26]: 0.25 µg/mL (≈ 0.838 µM)
- MIC [27]: 0.5 µg/mL (≈ 1.68 µM)
- MIC [28]: 0.5 µg/mL (≈ 1.68 µM)
- MIC [29]: 0.25 µg/mL (≈ 0.838 µM)
- MIC [30]: 1 µg/mL (≈ 3.35 µM)
- MIC [31]: 0.33 µg/mL (≈ 1.11 µM)
- MIC [32]: 0.33 µg/mL (≈ 1.11 µM)
- MIC [33]: 0.16 µg/mL (≈ 0.536 µM)
- MIC [34]: 0.5 µg/mL (≈ 1.68 µM)
- MIC [35]: 0.125 µg/mL (≈ 0.419 µM)
- MIC [36]: ≤ 0.063 µg/mL
- MIC [37]: 0.5 µg/mL (≈ 1.68 µM)
- MIC [38]: 0.25 µg/mL (≈ 0.838 µM)
- MIC [39]: 1 µg/mL (≈ 3.35 µM)
- MIC [40]: 0.25 µg/mL (≈ 0.838 µM)
- MIC [41]: 0.5 µg/mL (≈ 1.68 µM)
- MIC [42]: 0.5 µg/mL (≈ 1.68 µM)
- MIC [43]: 0.25 µg/mL (≈ 0.838 µM)
- MIC [44]: 0.5 µg/mL (≈ 1.68 µM)
- MIC [45]: 1 µg/mL (≈ 3.35 µM)
- MIC [46]: 1 µg/mL (≈ 3.35 µM)
- MIC [47]: 64 µg/mL (≈ 215 µM)
- MIC [48]: 64 µg/mL (≈ 215 µM)
- MIC [49]: > 64 µg/mL

Compound: NC1CCN(c2nc3c(cc2F)c(=O)c(C(=O)O)cn3-c2ccc(F)cc2F)C1 (stereo not drawn) [TFLX, tosufloxacin tosylate]
- MIC [1]: 8 µg/mL
- MIC [2]: 16 µg/mL
- MIC [3]: 32 µg/mL
- MIC [4]: 32 µg/mL
- MIC [5]: 32 µg/mL
- MIC [6]: > 128 µg/mL
- MIC [7]: 16 µg/mL
- MIC [8]: 128 µg/mL
- MIC [9]: 32 µg/mL
- MIC [10]: 32 µg/mL
- MIC [11]: > 128 µg/mL
- MIC [12]: > 128 µg/mL
- MIC [13]: 128 µg/mL
- MIC [14]: 128 µg/mL
- MIC [15]: 4 µg/mL
- MIC [16]: > 128 µg/mL
- MIC [17]: 128 µg/mL
- MIC [18]: > 128 µg/mL
- MIC [19]: 128 µg/mL
- MIC [20]: > 128 µg/mL
- MIC [21]: > 128 µg/mL
- MIC [22]: > 128 µg/mL
- MIC [23]: > 128 µg/mL
- MIC [24]: > 128 µg/mL
- MIC [25]: > 128 µg/mL
- MIC [26]: 128 µg/mL
- MIC [27]: > 128 µg/mL
- MIC [28]: 64 µg/mL
- MIC [29]: > 128 µg/mL
- MIC [30]: > 128 µg/mL
- MIC [31]: 128 µg/mL
- MIC [32]: > 128 µg/mL
- MIC [33]: 128 µg/mL
- MIC [34]: > 128 µg/mL
- MIC [35]: 8 µg/mL
- MIC [36]: 32 µg/mL
- MIC [37]: 16 µg/mL
- MIC [38]: > 128 µg/mL
- MIC [39]: > 128 µg/mL
- MIC [40]: > 128 µg/mL
- MIC [41]: 128 µg/mL
- MIC [42]: 16 µg/mL
- MIC [43]: > 128 µg/mL
- MIC [44]: 32 µg/mL
- MIC [45]: 8 µg/mL
- MIC [46]: 128 µg/mL
- MIC [47]: 0.25 µg/mL
- MIC [48]: 0.25 µg/mL
- MIC [49]: 1 µg/mL
